Experimental data published in patent US9439438B2 (priority 2011, dated 2016).

System: mice
Settings: mouse, in vivo

## [Cl][Mn][Cl] [Mn, MnCl2]
  resistance to a lethal STx challenge: completely resistant
